According to patent publication US11370763B2, “Compounds and compositions for treating conditions associated with NLRP activity” (Novartis AG, priority 2017, dated 2022):

These compounds were tested on IL-1β production in PMA-differentiated THP-1 cells (assay: IL-1β production in PMA-differentiated THP-1 cells stimulated with gramicidin (hTHP-1 assay containing 2% fetal bovine serum; Procedures 1-3)). Conditions: Homo sapiens, THP-1, hTHP-1 assay containing 2% fetal bovine serum; class symbols; read-out: hTHP-1 IC50 (Average IC50 of compounds in hTHP-1 assay).
Assay type: cell-based, human
Description: The following protocol is suitable for testing the activity of the compounds disclosed herein.
Procedure 1: IL-1β Production in PMA-Differentiated THP-1 Cells Stimulated with Gramicidin
THP-1 cells were purchased from the American Type Culture Collection and sub-cultured according to instructions from the supplier. Cells were cultured in complete RPMI 1640 (containing 10% heat inactivated FBS, penicillin (100 units/ml) and streptomycin (100 μg/ml)), and maintained in log phase prior to experimental setup. Prior to the experiment, compounds were dissolved in dimethyl sulfoxide (DMSO) to generate a 30 mM stock. The compound stock was first pre-diluted in DMSO to 3, 0.34, 0.042 and 0.0083 mM intermediate concentrations and subsequently spotted using Echo550 liquid handler into an empty 384-well assay plate to achieve desired final concentration (e.g. 100, 33, 11, 3.7, 1.2, 0.41, 0.14, 0.046, 0.015, 0.0051, 0.0017 μM). DMSO was backfilled in the plate to achieve a final DMSO assay concentration of 0.37%. The plate was then sealed and stored at room temperature until required.
THP-1 cells were treated with PMA (Phorbol 12-myristate 13-acetate) (20 ng/ml) for 16-18 hours. On the day of the experiment the media was removed and adherent cells were detached with trypsin for 5 minutes. Cells were then harvested, washed with complete RPMI 1640, spun down, and resuspended in RPMI 1640 (containing 2% heat inactivated FBS, penicillin (100 units/ml) and streptomycin (100 μg/ml). The cells were plated in the 384-well assay plate containing the spotted compounds at a density of 50,000 cells/well (final assay volume 50 μl). Cells were incubated with compounds for 1 hour and then stimulated with gramicidin (5 μM) (Enzo) for 2 hours. Plates were then centrifuged at 340 g for 5 min. Cell free supernatant (40 μL) was collected using a 96-channel PlateMaster (Gilson) and the production of IL-1β was evaluated by HTRF (cisbio). The plates were incubated for 18 h at 4° C. and read using the preset HTRF program (donor emission at 620 nm, acceptor emission at 668 nm) of the SpectraMax i3x spectrophotometer (Molecular Devices, software SoftMax 6). A vehicle only control and a dose titration of CRID3 (100-0.0017 μM) were run concurrently with each experiment.
Procedure 2: IL-1β Production in PMA-Differentiated THP-1 Cells Stimulated with Gramicidin
THP-1 cells were purchased from the American Type Culture Collection and sub-cultured according to instructions from the supplier. Prior to experiments, cells were cultured in complete RPMI 1640 (containing 10% heat inactivated FBS, penicillin (100 units/ml) and streptomycin (100 μg/ml)), and maintained in log phase prior to experimental setup. Prior to the experiment THP-1 were treated with PMA (Phorbol 12-myristate 13-acetate) (20 ng/ml) for 16-18 hours. Compounds were dissolved in dimethyl sulfoxide (DMSO) to generate a 30 mM stock. On the day of the experiment the media was removed and adherent cells were detached with trypsin for 5 minutes. Cells were then harvested, washed with complete RPMI 1640, spun down, resuspended in RPMI 1640 (containing 2% heat inactivated FBS, penicillin (100 units/ml) and streptomycin (100 μg/ml). The cells were plated in a 384-well plate at a density of 50,000 cells/well (final assay volume 50 μl). Compounds were first dissolved in assay medium to obtain a 5× top concentration of 500 μM. 10 step dilutions (1:3) were then undertaken in assay medium containing 1.67% DMSO. 5× compound solutions were added to the culture medium to achieve desired final concentration (e.g. 100, 33, 11, 3.7, 1.2, 0.41, 0.14, 0.046, 0.015, 0.0051, 0.0017 μM). Final DMSO concentration was at 0.37%. Cells were incubated with compounds for 1 hour and then stimulated with gramicidin (5 μM) (Enzo) for 2 hours. Plates were then centrifuged at 340 g for 5 min. Cell free supernatant (40 μL) was collected using a 96-channel PlateMaster (Gilson) and the production of IL-1β was evaluated by HTRF (cisbio). […]
Work on `CC(C)c1cc(F)cc(C(C)C)c1CC(=O)NS(=N)(=O)c1ccc(C(C)(C)O)cc1` (single isomer, unassigned) [Example 2] yielded an IC50 of 1000 to 5000 nM. `CC(C)(O)c1cnc(S(=N)(=O)NC(=O)Cc2c3c(cc4c2CCC4)CCC3)s1` (single isomer, unassigned) [Example 6] gave an IC50 of 1000 to 5000 nM. Work on `CC(C)c1cc(F)cc(C(C)C)c1CC(=O)N[S@](=N)(=O)c1ncc(C(C)(C)O)s1` (single isomer, unassigned) [Example 8] yielded an IC50 of 1000 to 5000 nM. `CC(C)c1cc(F)cc(C(C)C)c1CC(=O)N[S@@](=N)(=O)c1ncc(C(C)(C)O)s1` (single isomer, unassigned) [Example 9] showed an IC50 of 200 to 1000 nM. `CC(C)c1cc(F)cc(C2CC2)c1CC(=O)N=S(N)(=O)c1ccc(CN(C)C)cc1` (single isomer, unassigned) [Example 47, (R)- or (S)-2-(2-cyclopropyl-4-fluoro-6-isopropylphenyl)-N-(4-((dimethylamino)methyl)phenyl-sulfonimidoyl)acetamide] gave an IC50 of 200 to 1000 nM. For `CCc1cc(C#N)cc(C(C)C)c1CC(=O)N=S(N)(=O)c1ccc(CN(C)C)cc1` (single isomer, unassigned) [Example 59, (R)- or (S)-2-(4-cyano-2-ethyl-6-isopropylphenyl)-N-(4-((dimethylamino)methyl)phenyl-sulfonimidoyl)acetamide], the IC50 was 5000 to 30000 nM. Compound `CC(C)c1cc(C#N)cc(C2CC2)c1CC(=O)N=S(N)(=O)c1ccc(CN(C)C)cc1F` (single isomer, unassigned) [Example 62, (S)- or (R)-2-(4-cyano-2-cyclopropyl-6-isopropylphenyl)-N-(4-((dimethylamino)methyl)-2-fluorophenylsulfonimidoyl) acetamide] has an IC50 of 1000 to 5000 nM. In the case of `CC(C)(O)c1nc(CO)c(S(N)(=O)=NC(=O)Cc2c3c(cc4c2CCC4)CCC3)s1` (single isomer, unassigned) [Example 66, (S)- or (R)-2-(1,2,3,5,6,7-hexahydros-indacen-4-yl)-N-(4-(hydroxymethyl)-2-(2-hydroxypropan-2-yl)thiazol-5-ylsulfonimidoyl)acetamide], the IC50 is reported as 200 to 1000 nM. `CC(C)c1cc(C#N)cc(C(C)C)c1CC(=O)N=S(N)(=O)c1ccc(CN(C)C)cc1` (single isomer, unassigned) [Example 72, (S)- or (R)-2-(4-cyano-2,6-diisopropylphenyl)-N-(4-((dimethylamino)methyl)phenyl-sulfonimidoyl)acetamide] gave an IC50 of 1000 to 5000 nM. `CC(C)c1cc(C#N)cc(C2CC2)c1CC(=O)N=S(N)(=O)c1ccc(CN(C)C)cc1` (single isomer, unassigned) [Example 75, (R)- or (S)-2-(4-cyano-2-cyclopropyl-6-isopropylphenyl)-N-(4-((dimethylamino)methyl)phenyl-sulfonimidoyl)acetamide] showed an IC50 of 1000 to 5000 nM.

Same assay, conditions: Homo sapiens, THP-1, hTHP-1 assay containing 2% fetal bovine serum; given as numeric bound; read-out: hTHP-1 IC50 (Average IC50 of compounds in hTHP-1 assay)
Work on `CC(C)c1cc(F)cc(C(C)C)c1CC(=O)NS(=N)(=O)c1ccc(C(C)(C)O)cc1` (single isomer, unassigned) [Example 3] yielded an IC50 of over 30000 nM. `CC(C)(O)c1cnc(S(=N)(=O)NC(=O)Cc2c3c(cc4c2CCC4)CCC3)s1` (single isomer, unassigned) [Example 5] showed an IC50 of over 30000 nM. `CC(C)c1cc(F)cc(C2CC2)c1CC(=O)N=S(N)(=O)c1ccc(CN(C)C)cc1` (single isomer, unassigned) [Example 46, (S)- or (R)-2-(2-cyclopropyl-4-fluoro-6-isopropylphenyl)-N-(4-((dimethylamino)methyl)phenyl-sulfonimidoyl)acetamide] gave an IC50 of over 30000 nM. Compound `CCc1cc(C#N)cc(C(C)C)c1CC(=O)N=S(N)(=O)c1ccc(CN(C)C)cc1` (single isomer, unassigned) [Example 58, (S)- or (R)-2-(4-cyano-2-ethyl-6-isopropylphenyl)-N-(4-((dimethylamino)methyl)phenyl-sulfonimidoyl)acetamide] has an IC50 of over 30000 nM. In the case of `CC(C)c1cc(C#N)cc(C2CC2)c1CC(=O)N=S(N)(=O)c1ccc(CN(C)C)cc1F` (single isomer, unassigned) [Example 63, (R)- or (S)-2-(4-cyano-2-cyclopropyl-6-isopropylphenyl)-N-(4-((dimethylamino)methyl)-2-fluorophenylsulfonimidoyl) acetamide], the IC50 is reported as over 30000 nM. `CC(C)(O)c1nc(CO)c(S(N)(=O)=NC(=O)Cc2c3c(cc4c2CCC4)CCC3)s1` (single isomer, unassigned) [Example 67, (R)- or (S)-2-(1,2,3,5,6,7-hexahydros-indacen-4-yl)-N-(4-(hydroxymethyl)-2-(2-hydroxypropan-2-yl)thiazol-5-ylsulfonimidoyl)acetamide] was tested, and the IC50 was over 30000 nM. Compound `CC(C)c1cc(C#N)cc(C(C)C)c1CC(=O)N=S(N)(=O)c1ccc(CN(C)C)cc1` (single isomer, unassigned) [Example 73, (R)- or (S)-2-(4-cyano-2,6-diisopropylphenyl)-N-(4-((dimethylamino)methyl)phenyl-sulfonimidoyl)acetamide] has an IC50 of over 30000 nM. With `CC(C)c1cc(C#N)cc(C2CC2)c1CC(=O)N=S(N)(=O)c1ccc(CN(C)C)cc1` (single isomer, unassigned) [Example 74, (S)- or (R)-2-(4-cyano-2-cyclopropyl-6-isopropylphenyl)-N-(4-((dimethylamino)methyl)phenyl-sulfonimidoyl)acetamide] the IC50 was over 30000 nM.

Same assay, conditions: hTHP-1 assay containing 2% fetal bovine serum; class symbols; read-out: hTHP-1 IC50 (Average IC50 of compounds in hTHP-1 assay)
`CC(C)c1cc(F)cc(C(C)C)c1CC(=O)N=S(N)(=O)c1sc(C(C)(C)O)cc1F` (single isomer, unassigned) [Example 50, (S)- or (R)-2-(4-fluoro-2,6-diisopropylphenyl)-N-(3-fluoro-5-(2-hydroxypropan-2-yl)thiophen-2-ylsulfonimidoyl)acetamide] was tested, and the IC50 was 8 to 40 nM. With `CC(C)c1c(F)c(C#N)cc(C2CC2)c1CC(=O)N=S(N)(=O)c1sc(C(C)(C)O)cc1F` (single isomer, unassigned) [Example 54, (S)- or (R)-2-(4-cyano-6-cyclopropyl-3-fluoro-2-isopropylphenyl)-N-(3-fluoro-5-(2-hydroxypropan-2-yl)thiophen-2-ylsulfonimidoyl)acetamide] the IC50 was 8 to 40 nM. For `CC(C)c1cc(Cl)c(F)c(C2CC2)c1CC(=O)N=S(N)(=O)c1sc(C(C)(C)O)cc1F` (single isomer, unassigned) [Example 56, (S)- or (R)-2-(4-chloro-2-cyclopropyl-3-fluoro-6-isopropylphenyl)-N-(3-fluoro-5-(2-hydroxypropan-2-yl)thiophen-2-ylsulfonimidoyl)acetamide], the IC50 was 200 to 1000 nM. `CC(C)c1cc(C#N)cc(C(C)C)c1CC(=O)N=S(N)(=O)c1sc(C(C)(C)O)nc1CO` (single isomer, unassigned) [Example 64, (S)- or (R)-2-(4-cyano-2,6-diisopropylphenyl)-N-(4-(hydroxymethyl)-2-(2-hydroxypropan-2-yl)thiazol-5-ylsulfonimidoyl)acetamide] gave an IC50 of 200 to 1000 nM. `COCc1cc(C(C)C)c(CC(=O)N=S(N)(=O)c2sc(C(C)(C)O)nc2CO)c(C(C)C)c1` (single isomer, unassigned) [Example 68, (S)- or (R)-2-(2,6-diisopropyl-4-(methoxymethyl)phenyl)-N-(4-(hydroxymethyl)-2-(2-hydroxypropan-2-yl)thiazol-5-ylsulfonimidoyl)acetamide] showed an IC50 of 200 to 1000 nM.
